Laboratory results published in US20230109758A1 (priority 2018, published 2023).

Legend:
C. beijerinckii DSM 6423 = assay type: cell-based
[1] = tested on: C. beijerinckii DSM 6423 ΔcatB; assay type: cell-based

CS(=O)(=O)c1ccc([C@@H](O)[C@@H](CO)NC(=O)C(Cl)Cl)cc1 [thiamphenicol]
Growth on thiamphenicol-supplemented medium (C. beijerinckii DSM 6423): able to grow
Growth on thiamphenicol-supplemented medium [1]: only the initial C. beijerinckii DSM 6423 strain is able to grow
